Measured values from patent US20250129021A1, “SMALL MOLECULE PROTEIN SYNTHESIS MODULATORS” (Interdict Bio, Inc., priority 2023, published 2025).

How the values were obtained:
Type in all cases: biochemical
NFKB1 = assay: In vitro transcription-translation (IVTT) assay, NFKB1 reporter; conditions: HeLa S3 lysate, sfGFP/mCherry ratio
Description: In vitro transcription-translation assay setup: Each assay includes a master mix containing lysate and shared components, a 96-well plate containing compound titrations for testing, a 96-well DNA plate with reporter constructs to be tested, 96-well skirted PCR plates, and 96-well flat-bottom, black, fluorescent assay plates. Reaction materials setup: (A) Master mix—15 mL conical tube (3 mL of HeLa S3 Lysate described above; 0.6 mL of ThermoFisher Accessory Proteins (#88882); 1.2 ml of ThermoFisher Reaction Mix (#88882); 0.54 mL of nuclease-free Water); (B) 96-Well Master Mix+Compound Plate (Half-log dilutions (30 μM−0.1 μM) of 4 compounds of interest are prepared in 100% DMSO); 96-Well DNA Plate (Five DNA constructs are plated into single columns within the plate. Row 1 of the column contains nuclease free H2O, all other wells contain 110 ng/μL plasmid DNA). Reactions are started by mixing 155 μL of master mix and 3.5 μL of compound serial dilutions, then 9.1 μL of master mix+compound mixture is aliquoted across 5 96-well plates. Reactions begin with final addition of 2 μL of DNA for a 11.1 μL reaction volume in each well. The entire plate is sealed, and incubated for 2 hrs at 30° C. After 2 hrs, quench the assay using 45 μL of PBS, and transfer 50 μL to a flat-bottom black microplate Quantify the sfGFP and mCherry signals from each well on each plate, taking 3 reads of each plate, and perform data analysis below.
In vitro transcription-translation assay data analysis: Each plate is read three times in channels for both sfGFP and mCherry signals. The average signal across these 3 reads is then calculated for further analysis. Control wells containing no DNA reporter are subtracted from reporter wells in the same column to remove auto-fluorescence of the lysate. Then, the ratio of sfGFP/mCherry is calculated per well, and these ratios are averaged across the triplicate experiments on the same plate. Finally, the ratio of each titration concentration is normalized to the no drug control to create the normalized stalling metric. The error on this measurement is determined by propagating error through the averaging and normalization steps. Values are plotted and fit for IC50 determination for each test sequence and titration of compound.

MYC = assay: In vitro transcription-translation (IVTT) assay, MYC reporter; conditions: IVTT assay, HeLa S3 lysate, MYC reporter, normalized sfGFP/mCherry ratio; half-log dilutions 30 μM-0.1 μM, 2 hrs at 30° C.
Procedure, shortened: (§1)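 Reporter: mCherry, P2A, then 3×FLAG-target peptide-sfGFP fusion, IRES-initiated; HeLa S3 lysate IVTT; cpd dilutions 30 μM−0.1 μM half-log in 100% DMSO (dilution-plate conc); DNA added last; 2 h, 30° C; PBS quench.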

CCND1 = assay: In vitro transcription-translation (IVTT) assay, CCND1 reporter; conditions: IVTT assay, HeLa S3 lysate, sfGFP/mCherry ratio
Procedure, shortened: as §1

MCL-1 = assay: In vitro transcription-translation (IVTT) assay, MCL-1 reporter; conditions: IVTT assay, HeLa S3 lysate, sfGFP/mCherry ratio; read-out: MCL1 IC50
Procedure, shortened: as §1

CCNTB1 = assay: In vitro transcription-translation (IVTT) assay, CCNTB1 reporter; conditions: HeLa S3 lysate, sfGFP/mCherry ratio
Procedure, shortened: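 Cell-free HeLa S3 lysate reactions expressing sfGFP/mCherry reporter constructs ran 2 h at 30 °C with compound from half-log DMSO series (30 μM–0.1 μM as prepared), then were quenched with PBS. No-DNA background was subtracted, and the sfGFP/mCherry ratio was normalized to the no-drug control and fit for IC50.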

O=C(NCc1cccc(OC(F)(F)F)c1)O[C@@H]1[C@@H](O)CN[C@@H]1Cc1ccc(-c2cnco2)cc1 [V192276, (2R,3S,4S)-4-hydroxy-2-{[4-(1,3-oxazol-5-yl)phenyl]methyl}pyrrolidin-3-yl N-{[3-(trifluoromethoxy)phenyl]methyl}carbamate]
IC50 (NFKB1): < 10 µM
IC50 (MYC): < 10 µM
IC50 (CCND1): < 10 µM

O=C(NCC[C@@H]1CC(F)CN1)O[C@@H]1[C@@H](O)CN[C@@H]1Cc1ccc(-c2cnco2)cc1 (stereo partly drawn) [V192916, (2R,3S,4S)-4-hydroxy-2-{[4-(1,3-oxazol-5-yl)phenyl]methyl}pyrrolidin-3-yl N-{2-[(2R)-4-fluoropyrrolidin-2-yl]ethyl}carbamate]
IC50 (NFKB1): < 10 µM
IC50 (MYC): < 10 µM
IC50 (CCND1): < 10 µM

C[C@H]1CC[C@@H](CCNC(=O)O[C@@H]2[C@@H](O)CN[C@@H]2Cc2ccc(-c3cnco3)cc2)N1 [V192850, (2R,3S,4S)-4-hydroxy-2-{[4-(1,3-oxazol-5-yl)phenyl]methyl}pyrrolidin-3-yl N-{2-[(2S,5S)-5-methylpyrrolidin-2-yl]ethyl}carbamate]
IC50 (NFKB1): < 10 µM
IC50 (MYC): < 10 µM
IC50 (CCND1): < 10 µM

O=C(NCC[C@@H]1CCCN1)O[C@@H]1[C@@H](O)CN[C@@H]1Cc1ccc(C(F)F)cc1 [V192893, (2R,3S,4S)-2-(4-(difluoromethyl)benzyl)-4-hydroxypyrrolidin-3-yl (2-((S)-pyrrolidin-2-yl)ethyl)carbamate]
IC50 (NFKB1): < 10 µM
IC50 (MYC): < 10 µM
IC50 (CCND1): < 10 µM

O=C(NCc1cncc(N2CCC2)c1)O[C@@H]1[C@@H](O)CN[C@@H]1Cc1ccc(-c2cnco2)cc1 [V192286, (2R,3S,4S)-4-hydroxy-2-{[4-(1,3-oxazol-5-yl)phenyl]methyl}pyrrolidin-3-yl N-{[5-(azetidin-1-yl)pyridin-3-yl]methyl}carbamate]
IC50 (NFKB1): < 10 µM
IC50 (MYC): < 10 µM
IC50 (CCND1): < 10 µM

O=C(NCc1cccc(F)c1)O[C@@H]1[C@@H](O)CN[C@@H]1Cc1ccc(-c2cnns2)cc1 [V192319, (2R,3S,4S)-4-hydroxy-2-{[4-(1,2,3-thiadiazol-5-yl)phenyl]methyl}pyrrolidin-3-yl N-[(3-fluorophenyl)methyl]carbamate]
IC50 (NFKB1): < 10 µM
IC50 (MYC): < 10 µM
IC50 (CCND1): < 10 µM

O=C(NCCC12CNC(C1)C2)O[C@@H]1[C@@H](O)CN[C@@H]1Cc1ccc(-c2cnco2)cc1 [V192849, (2R,3S,4S)-4-hydroxy-2-{[4-(1,3-oxazol-5-yl)phenyl]methyl}pyrrolidin-3-yl N-(2-{2-azabicyclo[2.1.1]hexan-4-yl}ethyl)carbamate]
IC50 (NFKB1): < 10 µM
IC50 (MYC): < 10 µM
IC50 (CCND1): < 10 µM

O=C(NCc1cccc(F)c1)O[C@@H]1[C@@H](O)CN[C@@H]1Cc1ccc(-c2nncs2)cc1 [V192411, (2R,3S,4S)-4-hydroxy-2-{[4-(1,3,4-thiadiazol-2-yl)phenyl]methyl}pyrrolidin-3-yl N-[(3-fluorophenyl)methyl]carbamate]
IC50 (NFKB1): < 10 µM
IC50 (MYC): < 10 µM
IC50 (CCND1): < 10 µM

O=C(NCc1ccc2c(c1)CCNC2)O[C@@H]1[C@@H](O)CN[C@@H]1Cc1ccc(-c2ccc3c(c2)CC(F)(F)C3)cc1 [V192060, (2R,3S,4S)-2-{[4-(2,2-difluoro-1,3-dihydroinden-5-yl)phenyl]methyl}-4-hydroxypyrrolidin-3-yl N-(1,2,3,4-tetrahydroisoquinolin-6-ylmethyl)carbamate]
IC50 (MYC): < 10 µM
IC50 (MCL-1): < 10 µM
IC50 (CCNTB1): < 10 µM
IC50 (CCND1): 20 to 30 µM

O=C(NCc1cccc(F)c1)O[C@@H]1[C@@H](O)CN[C@@H]1Cc1ccc(-c2cn3ccccc3n2)cc1 [V192139]
IC50 (MYC): < 10 µM
IC50 (MCL-1): < 10 µM
IC50 (CCNTB1): < 10 µM
IC50 (CCND1): < 10 µM

COc1ccc(C[C@H]2NC[C@H](O)[C@H]2OC(=O)NCC[C@H]2CCCNC2)cc1 [V192046, (2R,3S,4S)-4-hydroxy-2-[(4-methoxyphenyl)methyl]pyrrolidin-3-yl N-{2-[(3R)-piperidin-3-yl]ethyl}carbamate]
IC50 (MYC): < 10 µM
IC50 (MCL-1): < 10 µM
IC50 (CCNTB1): < 10 µM
IC50 (CCND1): 10 to 20 µM
